Assay results: ChEMBL document CHEMBL4828754, “Salicinoyl Quinic Acids and Their Prostaglandin E2 Production Inhibitory Activities from the Fruits of Casearia grewiifolia” (J Nat Prod, 2021)
pIC50: −log10 of the molar value. The source made the active and inactive calls. The rule behind the calls is not given here.

How the values were obtained:
[1] = Inhibition of ultraviolet B-irradiation upregulated of prostaglandin E2 production in human HaCaT cells measured after 2 hrs by ELISA; type: functional, cell-based; conditions: light or radiation study
HaCaT = assay: Inhibition of ultraviolet B-irradiation upregulated of prostaglandin E2 production in human HaCaT cells at 10 uM measured after 2 hrs by ELISA relative to control; type: functional, cell-based

Row | Structure (SMILES) | pIC50 [1] | inhibition (HaCaT)
1 | COC(=O)[C@]1(O)C[C@@H](O)[C@@H](OC(=O)/C=C/c2ccccc2)[C@H](O)C1 | 4.54 | –
2 | CC(=O)O[C@@H]1C[C@](O)(C(=O)OCc2ccccc2O[C@@H]2O[C@H](CO)[C@@H](O)[C@H](O)[C@H]2O)C[C@@H](OC(C)=O)[C@H]1OC(=O)/C=C/c1ccccc1 | 4.69 | –
3 | Oc1ccc(/C=C/c2cc(O)cc(O)c2)cc1 [RESVERATROL] | 4.45 | –
4 | CC(=O)O[C@@H]1C[C@](O)(C(=O)OCc2ccccc2O[C@@H]2O[C@H](CO)[C@@H](O)[C@H](O)[C@H]2O)C[C@@H](O)[C@H]1OC(=O)/C=C/c1ccccc1 | – | Active
5 | CC(=O)Oc1ccccc1C(=O)O [ASPIRIN] | 4.52 | –
6 | CC(=O)O[C@@H]1[C@H](OC(C)=O)C[C@@](OC(=O)/C=C/c2ccccc2)(C(=O)OCc2ccccc2O[C@@H]2O[C@H](CO)[C@@H](O)[C@H](O)[C@H]2O)C[C@H]1O[C@@H]1O[C@H](CO)[C@@H](O)[C@H](O)[C@H]1O | – | Active
7 | OCc1ccccc1O[C@@H]1O[C@H](CO)[C@@H](O)[C@H](O)[C@H]1O | – | inactive
8 | COC(=O)[C@]1(O)C[C@@H](O)[C@@H](OC(=O)c2ccccc2)[C@H](O[C@@H]2O[C@@H](C)[C@H](O)[C@@H](O)[C@H]2O)C1 | – | Active
